Reference: patent US20160136284A1, “GLIOMA TREATMENT” (priority 2012, published 2016)
Entries after “also recorded” stand apart in the source; their conditions may differ.

What was measured:
[1] = Coinfusion of carboplatin and gadolinium-DTPA into pig corona radiata (T1 MRI, LA-ICP-MS); format: in vivo; conditions: carboplatin 0.03 mg/ml coinfused with 0.3% gadolinium-DTPA, CED
Description: Carboplatin infusions were undertaken into male Large White Landrace pigs weighing 45 kg using a cannula system developed in-house. Pig anaesthesia, head immobilisation and brain imaging were achieved as we have previously described White et al (2010). Infusions of 120 μl 0.03 mg/ml carboplatin mixed with 0.3% (6 μmol/l) Gadolinium-DTPA (Magnevist: Bayer Healthcare, Germany), were undertaken bilaterally into the corona radiata using a cannula composed of a length of fused silica (outer diameter 220 μm, inner diameter 150 μm) bonded to a glass Hamilton syringe. Except for the distal 3 mm, this fused silica tube was supported along its length by a series of zirconia tubes to ensure that it could be accurately inserted to target. Infusions were performed using the following regime: 0.5 μl/min for 5 min, 1 μl/min for 5 min, 2.5 μl/min for 5 min and then 5 μl/min for 20 min. This regime was employed in an attempt to minimise the occurrence of a sudden surge in pressure at the catheter tip due to elasticity in the infusion tubing. 120 μl was infused as this is the largest volume that we have previously infused into pig white matter without leakage into the ventricular system. Following infusion completion, the cannula was left in place for 10 min prior to being withdrawn slowly by hand. CSF leakage from the burr hole and cannula track was sealed with Cerebond prior to wound closure. […]

[2] = Carboplatin toxicity in rat brain after CED (clinical, H&E, GFAP, DiI); format: in vivo
Description: Male Wistar rats (Charles River, UK) were group-housed and allowed to acclimatise prior to experimental procedures. Rats weighing 225 to 275 g were anaesthetised with an intraperitoneal dose of medetomidine (Dormitor; 0.4 mg/kg; Pfizer Animal Health, Kent, UK) and ketamine (Ketaset; 100 mg/kg; Pfizer, UK) and placed in a stereotactic frame (Stoelting Co, Wood Dale, Ill. USA). A linear incision was made between the glabella and the occiput and the skull exposed. Burr holes with a diameter of approximately 2 mm were drilled 1.0 mm anterior and 2.5 mm lateral to the bregma and cannulae were inserted to a depth of 2.5 mm below the dura. All cannulae were pre-primed with either saline or carboplatin and the desired dose prior to insertion into the brain. Every attempt was made to ensure that no air bubbles were present in the infusion cannula. Infusions of 2.5 μl of carboplatin at specific concentrations (outlined in Table 1) were conducted at a rate of 5 μl/min. Following infusion completion, the cannula was left in-situ for 10 min before being withdrawn at a rate of 1 mm/min. The wound was then closed with 5.0 Vicryl (Ethicon, Gargrave, UK) a dose of intramuscular buprenorphine was administered (Vetergesic; 0.03 mg/kg; Alstoe Animal Health, York, UK) and the anaesthetic was reversed with an intraperitoneal dose of atipamezole hydrochloride (Antisedan; 5 mg/kg; Pfizer, UK). At predetermined time-points (see Table 1), animals were perfusion fixed with 100 mL of PBS followed by 100 mL of 4% paraformaldehyde (PFA; Fisher Scientific, UK) in PBS (pH 7.4). The brain was then removed from the skull and placed in 4% PFA for 48 hours and then cryoprotected in 30% sucrose (Melford Laboratories, Ipswich, UK) in PBS prior to sectioning.
Rat brains were cut into 35 μm thick coronal sections using a Leica CM1850 cryostat (Leica Microsystems, Wetzlar, Germany) at −20° C. For haematoxylin and eosin staining, fixed sections were mounted on gelatine-subbed slides. Sections were submerged in 4% PFA for 20 minutes, dehydrated and then stained with haematoxylin and eosin (Cell Path, Hemel Hempstead, UK) according to standard protocols. Following this, sections were coverslipped with Pertex mounting medium (Cell Path, UK) and allowed to dry in the fumehood overnight before imaging with a Leica CTR 5500 microscope (Leica Microsystems, Germany). Sections were assessed by light microscopy to ensure that the cannula track in each brain terminated in the corpus callosum.
For fluorescent immunohistochemistry, free-floating sections were washed with PBS for 5 min×3. Sections were then blocked in PBS plus 0.1% triton-x-100 (Sigma Aldrich, UK) containing 10% normal donkey serum (Sigma Aldrich, UK) for 1 hour at RT. Sections were then washed with PBS for 5 min. […]

[3] = up to 0.9 mg/ml, vs 0.9% saline

In the case of `N.N.O=C([O-])C1(C(=O)[O-])CCC1.[Pt+2]` [carboplatin], the “distribution in pig corona radiata (LA-ICP-MS)” value [1] is reported as “widespread carboplatin distribution”, the “histological tissue toxicity (haematoxylin and eosin)” value ([2]; 0.03-0.9 mg/ml, up to 30 days) is reported as “no histological evidence of tissue disruption; also recorded: No evidence of tissue toxicity” and the “clinical tolerability / toxicity” value ([2]; single CED infusions, concentrations of up to 0.9 mg/ml) is reported as “well tolerated; also recorded: no clinical or histological evidence of toxicity”. For the same molecule, the “gliosis in white matter (GFAP immunostaining)” value [2, 3] was “minimal evidence of gliosis” and the “white matter tract integrity (DiI staining)” value [2, 3] was “no loss of white matter tract integrity”.
